{"source": "patent EP4467137A1", "about": "“TREATMENT OF FRONTOTEMPORAL DEMENTIA OR FRONTOTEMPORAL LOBAR DEMENTIA” (Universidad Autónoma de Madrid, priority 2023, dated 2024)", "key": {"[1]": {"tested_on": "HEK-293 FRET biosensor containing tau repeating domains", "experiment": "Tau seeding assay in HEK-293 tau FRET biosensor cells", "type": "cell-based", "settings": "Tg4510 mouse brain homogenate as aggregant stimulus; increasing concentrations", "protocol": "• Figure 1. Compound 1 reduces the inflammatory response against LPS in vitro. (A) Nitric oxide (NO) production in BV2 cells detected by DAF 24 h after LPS exposure and normalized by cell viability measured by MTT (n = 9). (B) qRT-PCR of TNFα (n = 9) in BV2 cells after 24 h LPS exposure. Sulforaphane (Sfn) was used as a positive control. […] Compound 1 decreases the inflammatory process 4 and 24 hours after LPS administration in vivo. Compound 1 (20 mg·kg^-1) daily was injected i.p. four days before the i.p. LPS (0.5 mg·kg^-1) administration. […] Compound 1 ameliorates the resolution of the inflammatory process triggered by LPS. […] (B) Locomotion activity measured by line crossings of an imaginary grid. […] Compound 1 reduced tau seeding in HEK-293 tau FRET biosensor measured by flow cytometer (C). […] Representative images of hyperphosphorylated tau intensity measured by AT8 and AT180 antibodies in three different regions of the hippocampus (GD, CA3 and CA1) (n = 11-12). (B) Quantification AT8 intensity, normalized to CA3 intensity of Sham animals. (C) Quantification of AT180 intensity, normalized to CA3 intensity of Sham animals (n = 9-12). […] Quantification of sarkosyl soluble (n = 10) (C) and insoluble species (D) using AT8 antibody (n = 10). Quantification of sarkosyl soluble (n = 10) (E) and insoluble species (F) using AT180 antibody (n = 10). […]"}, "hyperphosphorylated tau": {"tested_on": "hyperphosphorylated tau", "experiment": "In vivo hTauP301L model: western blot of sarkosyl soluble and insoluble hyperphosphorylated tau", "set-up": "species or system mouse", "settings": "adult mice; 50 mg/kg/day oral, 35 days; sarkosyl insoluble fraction", "protocol": "In vivo hTau301L model was induced by stereotaxic injection of AAV-hTauP301L (AAV-hTau) particles as described in [Luengo, Enrique et al. \"Implication of type 4 NADPH oxidase (NOX4) in tauopathy.\" Redox biology vol. 49 (2022): 102210. doi:10.1016/j.redox.2021.102210 ]. Control animals were injected with AAV-GFP. Evaluation of hyperphosphorylated tau in sarkosyl soluble and insoluble fractions; microgliosis; AT8 and AT180 by immunofluorescence; and cognitive test were performed as described previously [Luengo, Enrique et al. \"Implication of type 4 NADPH oxidase (NOX4) in tauopathy.\" Redox biology vol. 49 (2022): 102210. doi:10.1016/j.redox.2021.102210 ].\nOral administration of Compound 1 at different dosages (20 mg·kg^-1 and 50 mg·kg^-1) was administered embedded in gelatine. The compound was given in a mixture of 10 % gelatine from porcine skin and 10 % sucralose in water, heated in a microwave oven. Before Compound 1 addition, gelatine mixture was left at RT. Afterwards, the compound was added, evenly mixed and plated 1 mL·well^-1 in a P24 plate. […]\nExample 2.5. […] After 35 days treatment, hyperphosphorylated tau levels were evaluated by immunofluorescence and by WB in soluble and insoluble in sarkosyl fractions. […]\nAfter 35 days of treatment, monomeric and oligomeric forms of tau, soluble and insoluble in sarkosyl, were analysed by western blot. […]"}}}
{"smiles": "COc1ccc2c(c1)CC(c1c[nH]c3ccc(OC)cc13)N2", "note": "(stereo not drawn) [Compound 1, 5-Methoxy-3-(5-methoxyindolin-2-yl)-1H-indole]", "values": [{"measurement": "tau seeding (integrated FRET density)", "setting": "[1]", "value": "reduce tau seeding ability following a concentration dependent effect"}, {"measurement": "insoluble monomers of AT180", "setting": "hyperphosphorylated tau", "value": "significant reduction"}, {"measurement": "insoluble oligomers of AT180", "setting": "hyperphosphorylated tau", "value": "tendency to reduce"}]}
